Read-outs that look alike come from different tables or passages of the source.
Legend:
tubulin [1] = assay: Inhibition of MAP-dependent microtubule assembly; type: biochemical, bovine
tubulin [2] = conditions: reported by David et al.; cited from earlier work
αβ-tubulin dimer = assay: Binding of radiolabeled compounds to αβ-tubulin dimer; set-up: species or system bovine; conditions: radiolabeled compound
tubulin [3] = type: binding, bovine; conditions: for maximum stoichiometry of compound incorporation into aberrant polymer: 80 μM compound; for compound incorporated into induced polymers, as little as: substoichiometric reactions (abstract)
tubulin [4] = assay: Polymer formation without GTP at 0 °C; type: biochemical, bovine; conditions: no GTP; for spiral formation (centrifugation study, Fig. 7A): 10 μM tubulin, concentrations up to 30 μM; for % tubulin in polymer ± SE: single compound 30 μM, 20 min, 1.0 mg/mL tubulin
cultured cells = conditions: cited from earlier work
tubulin [5] = target: tubulin (Bos taurus, UniProt P81947+Q6B856); assay: Aberrant tubulin assembly; conditions: for extent of aberrant assembly reaction (turbidity), % of its maximum: within 20 min at 0 °C, 10 μM compound, 10 μM tubulin, 0.6 M glutamate, 1.0 mM MgCl2, 50 μM GTP
[6] = 5 μM compound, 10 μM tubulin, 22 °C, 30 min
[7] = 10 μM radiolabeled ligand alone (Table 3)
[8] = compound and tubulin equimolar (10 μM each)

Sequence of tubulin (Bos taurus, UniProt P81947+Q6B856) (P81947 whole entry): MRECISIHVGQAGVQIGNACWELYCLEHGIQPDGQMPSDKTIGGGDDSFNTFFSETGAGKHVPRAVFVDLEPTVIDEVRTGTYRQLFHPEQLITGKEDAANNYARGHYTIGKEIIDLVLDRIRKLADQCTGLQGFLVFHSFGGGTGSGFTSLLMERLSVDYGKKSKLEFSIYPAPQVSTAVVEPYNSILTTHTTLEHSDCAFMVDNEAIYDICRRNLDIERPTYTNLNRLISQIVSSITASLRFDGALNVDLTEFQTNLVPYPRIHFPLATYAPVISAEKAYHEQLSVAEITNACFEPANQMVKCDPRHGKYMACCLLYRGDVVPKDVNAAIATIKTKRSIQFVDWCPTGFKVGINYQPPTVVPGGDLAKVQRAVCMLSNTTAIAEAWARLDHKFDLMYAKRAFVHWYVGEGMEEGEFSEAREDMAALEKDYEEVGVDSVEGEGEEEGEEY
Sequence of tubulin (Bos taurus, UniProt P81947+Q6B856) (Q6B856 whole entry): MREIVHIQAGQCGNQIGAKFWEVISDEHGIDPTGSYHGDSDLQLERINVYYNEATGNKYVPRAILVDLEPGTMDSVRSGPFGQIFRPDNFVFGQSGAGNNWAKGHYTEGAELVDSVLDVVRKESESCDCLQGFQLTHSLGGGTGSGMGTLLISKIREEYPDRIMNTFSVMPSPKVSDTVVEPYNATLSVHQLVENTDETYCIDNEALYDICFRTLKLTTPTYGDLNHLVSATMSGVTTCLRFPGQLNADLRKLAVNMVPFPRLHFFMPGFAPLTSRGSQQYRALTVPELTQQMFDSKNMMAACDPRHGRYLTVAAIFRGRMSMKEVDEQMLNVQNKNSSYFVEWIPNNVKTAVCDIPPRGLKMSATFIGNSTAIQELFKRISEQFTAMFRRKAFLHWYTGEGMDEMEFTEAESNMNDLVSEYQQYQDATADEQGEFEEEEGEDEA

Compound: Cc1nn(CC(=O)O)c(=O)c(C#N)c1-c1ccccc1 [NSC 608600]
- effect on microtubule assembly (tubulin [1]): no significant effect on microtubule assembly

Compound: Cc1c(-c2ccccc2)nn(CC(=O)O)c(=O)c1C#N [NSC 608602]
- effect on microtubule assembly (tubulin [1]): no significant effect on microtubule assembly

Compound: COc1cc2cc(c1Cl)N(C)C(=O)C[C@H](OC(=O)[C@H](C)N(C)C(C)=O)[C@]1(C)O[C@H]1[C@H](C)[C@@H]1C[C@@](O)(NC(=O)O1)[C@H](OC)/C=C/C=C(\C)C2 [Maytansine]
- inhibition of (−)-rhazinilam aberrant assembly reaction (tubulin [2]): inhibited

Compound: (−)-Rhazinilam [reference compound]
- binding to the αβ-tubulin dimer (αβ-tubulin dimer): unable to demonstrate binding
- % of the tubulin in polymer pellet (tubulin [3]; [6]): 53%
- % tubulin recovered in pellet (tubulin [3]; 10 μM [3H]NSC 613241 plus 80 μM nonradiolabeled inhibitor): 95 ± 5.2%
- % tubulin recovered in pellet (tubulin [3]; [7]): 37 ± 5.1%
- % of the tubulin in polymer pellet (tubulin [3]; 20 μM compound, 10 μM tubulin): about 90%
- % of the tubulin in polymer (tubulin [3]; 40 μM compound, 10 μM tubulin): ~100%
- stoichiometry of compound to tubulin in the pellets (tubulin [3]; 40 μM compound, 10 μM tubulin): 0.47
- maximum stoichiometry of compound incorporation into aberrant polymer (tubulin [3]; 10 μM tubulin): 0.68
- stoichiometry of compound to tubulin in the pellets (tubulin [3]; [8]): 0.13
- compound incorporated into induced polymers, as little as (tubulin [3]): 0.1–0.2 mol compound/mol of tubulin
- spiral formation (centrifugation study, Fig. 7A) (tubulin [4]): minimal
- % tubulin in polymer ± SE (tubulin [4]): 0 ± 2%
- IC50 values in treated cells (cultured cells): low μM range
- extent of aberrant assembly reaction (turbidity), % of its maximum (tubulin [5]): little or no change in turbidity

Compound: CC[C@]1(O)C[C@@H]2CN(CCc3c([nH]c4ccccc34)[C@@](C(=O)OC)(c3cc4c(cc3OC)N(C)[C@H]3[C@@](O)(C(=O)OC)[C@H](OC(C)=O)[C@]5(CC)C=CCN6CC[C@]43[C@@H]65)C2)C1 [Vinblastine]
- inhibition of (−)-rhazinilam aberrant assembly reaction (tubulin [2]): inhibited

Compound: N#Cc1c(-c2ccccc2)c(-c2ccccc2)nn(Cc2nn[nH]n2)c1=O [NSC 608593]
- % tubulin in polymer ± SE (tubulin [4]): 0 ± 1%

Compound: N#Cc1c(-c2ccc(F)cc2)c(-c2ccc(F)cc2)nn(Cc2nn[nH]n2)c1=O [NSC 613241]
- binding to the αβ-tubulin dimer (αβ-tubulin dimer): unable to demonstrate binding
- % of the tubulin in polymer pellet (tubulin [3]; [6]): 73%
- % tubulin recovered in pellet (tubulin [3]; 10 μM [3H](−)-rhazinilam plus 80 μM nonradiolabeled inhibitor): 89 ± 6.4%
- % tubulin recovered in pellet (tubulin [3]; [7]): 72 ± 5.4%
- Ligand bound/tubulin in aberrant polymer ± SD (tubulin [3]; 10 μM radiolabeled ligand alone, 22 °C, 30 min (Table 3)): 0.15 ± 0.013
- % of the tubulin in polymer pellet (tubulin [3]; 20 μM compound, 10 μM tubulin): about 90%
- % of the tubulin in polymer (tubulin [3]; 40 μM compound, 10 μM tubulin): ~100%
- stoichiometry of compound to tubulin in the pellets (tubulin [3]; 40 μM compound, 10 μM tubulin): 0.42
- maximum stoichiometry of compound incorporation into aberrant polymer (tubulin [3]; 10 μM tubulin): 0.62
- stoichiometry of compound to tubulin in the pellets (tubulin [3]; [8]): 0.11
- compound incorporated into induced polymers, as little as (tubulin [3]): 0.1–0.2 mol compound/mol of tubulin
- spiral formation (centrifugation study, Fig. 7A) (tubulin [4]): minimal
- % tubulin in polymer ± SE (tubulin [4]): 0 ± 2%
- delay of aberrant assembly after addition of compound (tubulin [5]; 0 °C, 0.6 M monosodium glutamate, 50 μM GTP, 1 mM MgCl2, 2% dimethyl sulfoxide): about 1 min
- extent of aberrant assembly reaction (turbidity), % of its maximum (tubulin [5]): 30–35%

Reference: paper PMC4955782 (Archives of biochemistry and biophysics, 2016)
